From patent US20030060493A1, “Repinotan kit” (priority 2000, published 2003)

Tested on: stroke or craniocerebral trauma
Assay: Clinical studies in healthy subjects and patients after stroke or craniocerebral trauma
Type: in vivo, human

O=C1c2ccccc2S(=O)(=O)N1CCCCNCC1CCc2ccccc2O1 (stereo in doubt) [repinotan, 2-[4-({[(2R)-chroman-2-yl]methyl}amino)butyl]-1,2-benzisothiazol-3(2H)-one 1,1-dioxide]
neurological and functional deficits (after 3 and 6 months respectively depending on indication): possible to improve the neurological and functional deficits
tolerability (healthy subjects and patients after a stroke or craniocerebral trauma): good tolerability
result of treatment versus placebo (patients who reached blood plasma concentrations of about 5-20 μg/l): markedly better
